Source: US9833454B2, “Difluoromethoxy compound with low bioactivation potential for the reduction of beta-amyloid production” (BRISTOL-MYERS SQUIBB COMPANY, priority 2014, dated 2017)
Where “and” joins values, the source holds several entries; their conditions need not be identical. Equal entries are not always repeated. Where two headings read alike, the source gives them in different places.

Key:
CYP2D6 [1] = target: T1, CYP2D6 (Homo sapiens, UniProt P10635); assay: Inhibition of CYP enzymes in human liver microsomes (HLM), CYP2D6; conditions: IC50 shift 0 vs 30 min preincubation (TDI ratio)
[2] = In vitro metabolite elucidation in Aroclor-treated rat liver S9 (with NADPH and GSH); assay type: in vitro ADME
Procedure: The incubation mixtures (0.5 mL) contained N2-(3-(DIFLUOROMETHOXY)-4-(3-METHYL-1H-1,2,4-TRIAZOL-1-YL)PHENYL)-7-(4-FLUOROPHENYL)-N4,5,5-[…]-6,7-DIHYDRO-5H-CYCLOPENTA[D]PYRIMIDINE-2,4-DIAMINE (10 μM), liver S9 fractions from Aroclor 1254-treated rats (Molecular Toxicology, Boone, N.C.) (2 mg protein/mL), and glutathione (GSH, 5 mM) in a 100 mM potassium phosphate buffer (pH 7.4). The final concentration of acetonitrile in the S9 fraction incubations was 0.5% (v/v). The reactions were initiated by adding β-nicotinamide adenine dinucleotide 2′-phosphate reduced tetrasodium salt (NADPH, final concentration as 1 mM) and the incubations were carried out at 37° C. […] The filtrate was collected in a 96-well plate and evaporated to approximately 25% of the original volume under nitrogen gas, and the remaining aqueous phase was analyzed using high-performance liquid chromatography with ultraviolet (UV) spectroscopic and mass spectrometric detection (LC-UV/MS) under the conditions described in Section 1.2.
Bioanalytical methods were as follows: The LC-UV/MS system consisted of a Waters Acquity binary solvent manager, a sample manager, a photodiode array (PDA) detector, and a Xevo Q-TOF mass spectrometer (Waters Corporation, Milford, Mass.). […] Column effluent was analyzed in-line using a PDA detector followed by the mass spectrometer. […]

CYP2C8 = target: T2, CYP2C8 (Homo sapiens, UniProt P10632); assay: Inhibition of recombinant CYP enzymes (rCYP), CYP2C8; assay type: in vitro ADME; conditions: average of two experiments, read-out: rCYP IC50 2C8
T2 sequence (P10632 1-490): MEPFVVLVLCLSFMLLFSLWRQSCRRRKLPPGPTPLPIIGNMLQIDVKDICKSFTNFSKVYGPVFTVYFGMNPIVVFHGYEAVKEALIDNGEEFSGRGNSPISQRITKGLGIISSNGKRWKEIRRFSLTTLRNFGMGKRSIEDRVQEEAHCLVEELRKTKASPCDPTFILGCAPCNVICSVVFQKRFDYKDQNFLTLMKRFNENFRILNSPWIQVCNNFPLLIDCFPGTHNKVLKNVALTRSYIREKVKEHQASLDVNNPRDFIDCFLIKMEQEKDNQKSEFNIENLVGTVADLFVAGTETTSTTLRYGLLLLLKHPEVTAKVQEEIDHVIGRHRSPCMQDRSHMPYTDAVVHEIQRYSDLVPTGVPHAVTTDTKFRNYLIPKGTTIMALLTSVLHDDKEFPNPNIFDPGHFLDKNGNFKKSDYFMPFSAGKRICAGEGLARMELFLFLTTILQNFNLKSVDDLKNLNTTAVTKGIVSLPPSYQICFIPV

CYP2C9 = CYP2C9 (Homo sapiens, UniProt P11712); assay: Inhibition of CYP enzymes in human liver microsomes (HLM), CYP2C9; assay type: in vitro ADME
CYP2D6 [3] = target: T1, CYP2D6; assay: biochemical
Mouse brain Aβ42 = assay: Mouse brain Aβ42; assay type: in vivo; conditions: for Mouse Aβ42: mouse brain; for B/P / Compound concentration in the Mouse Aβ42 study: mouse; for Compound concentration in the Mouse Aβ42 study: matrix not given
Procedure: Aβ42 IC50 was determined as described by Gillman, J. E. Starrett Jr., M. F. Parker, et al., “Discovery and evaluation of BMS-708163, a potent, and orally bioavailable gamma-secretase inhibitor”, ACS Medicinal Chemistry Letters, vol. 1., pp. 120-124, 2010. Mouse brain Aβ42 was determined as described by J. H. Toyn, X-A. Lin, M. W. Thompson et al., “Viable mouse gene ablations that robustly alter bran Abeta levels are are”, Biomed. Central Neuroscience, vol. 11, pp. 143, […].

CYP2C9, sequence (P11712 whole entry): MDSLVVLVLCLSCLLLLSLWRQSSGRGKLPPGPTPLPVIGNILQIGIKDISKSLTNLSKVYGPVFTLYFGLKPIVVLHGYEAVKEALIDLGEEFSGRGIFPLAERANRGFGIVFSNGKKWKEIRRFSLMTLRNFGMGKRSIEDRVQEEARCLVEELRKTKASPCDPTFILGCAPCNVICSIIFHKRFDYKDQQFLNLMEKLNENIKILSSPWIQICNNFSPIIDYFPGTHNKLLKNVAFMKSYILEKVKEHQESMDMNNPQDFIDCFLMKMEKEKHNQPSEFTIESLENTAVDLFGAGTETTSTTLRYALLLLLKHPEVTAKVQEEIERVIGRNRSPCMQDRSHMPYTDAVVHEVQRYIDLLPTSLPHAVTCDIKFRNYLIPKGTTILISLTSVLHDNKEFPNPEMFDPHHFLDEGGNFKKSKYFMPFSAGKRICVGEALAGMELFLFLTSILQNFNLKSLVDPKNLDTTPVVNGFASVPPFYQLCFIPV
T1 sequence (P10635 whole entry): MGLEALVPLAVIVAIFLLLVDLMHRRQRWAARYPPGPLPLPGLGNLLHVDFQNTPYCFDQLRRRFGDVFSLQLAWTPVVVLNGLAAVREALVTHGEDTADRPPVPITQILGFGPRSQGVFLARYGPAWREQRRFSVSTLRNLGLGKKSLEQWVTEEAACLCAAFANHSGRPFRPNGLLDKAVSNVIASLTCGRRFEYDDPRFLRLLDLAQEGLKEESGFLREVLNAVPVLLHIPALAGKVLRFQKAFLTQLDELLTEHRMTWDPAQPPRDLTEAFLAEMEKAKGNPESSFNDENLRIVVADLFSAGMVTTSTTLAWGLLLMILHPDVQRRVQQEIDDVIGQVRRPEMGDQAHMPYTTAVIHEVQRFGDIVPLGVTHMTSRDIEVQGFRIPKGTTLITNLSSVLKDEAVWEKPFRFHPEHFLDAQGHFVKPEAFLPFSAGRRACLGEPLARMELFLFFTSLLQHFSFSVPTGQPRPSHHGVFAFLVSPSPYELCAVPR

With `CNc1nc(Nc2ccc(-n3cnc(C)n3)c(OC(F)F)c2)nc2c1C(C)(C)CC2c1ccc(F)cc1` (single isomer, unassigned) [Enantiomer 1, N2-(3-(difluoromethoxy)-4-(3-methyl-1H-1,2,4-triazol-1-yl)phenyl)-7-(4-fluorophenyl)-N4,5,5-trimethyl-6,7-dihydro-5H-cyclopenta[d]pyrimidine-2,4-diamine] as the molecule, how does the “IC50 Ratio 2D6” value (CYP2D6 [1]) read?
The value was 2.2.

What about the “Estimated Percent (%) of The Original Parent Level (P) Based on UV Peak Areas” value ([2]; 10 μM, 30-minute incubation with NADPH and GSH, UV 300 nm) of the same molecule?
Its value is 76%.

And the “GSH Adducts” value ([2]; NADPH and GSH)?
The value was “No GSH conjugates were detected”.

And the IC50 (CYP2C8)?
The IC50 was 960 nM.

And the IC50 (CYP2C9; HLM, 0 min preincubation, read-out: IC50-0 min 2C9)?
Its IC50 is 12.7 µM.

What about the “IC50 Ratio 2C9” value (CYP2C9; HLM, IC50 shift 0 vs 30 min preincubation (TDI ratio)) of the same molecule?
Its value is 1.4.

What about the IC50 (CYP2C9; IC50-30 min 2C9, HLM, 30 min preincubation with NADPH) of the same molecule?
Its IC50 is 8.8 µM.

And the IC50 (CYP2D6 [3])?
Its IC50 is 34.5 µM and 15.6 µM.

What about the “Mouse Aβ42” value (Mouse brain Aβ42; 8 mpk) of the same molecule?
The value was 68%.

And the “Mouse Aβ42” value (Mouse brain Aβ42; 30 mpk)?
Its value is 29%.

What about the B/P (Mouse brain Aβ42; 8 mpk) of the same molecule?
Its B/P is 0.7.

What about the “Compound concentration in the Mouse Aβ42 study” value (Mouse brain Aβ42; 8 mpk) of the same molecule?
Its value is 391 nM.

What about the B/P (Mouse brain Aβ42; 30 mpk) of the same molecule?
Its B/P is 1.4.

And the “Compound concentration in the Mouse Aβ42 study” value (Mouse brain Aβ42; 30 mpk)?
Its value is 1334 nM.
